These results are taken from BindingDB's records for patent US20230278983 (Universite Claude Bernard Lyon 1, 2023).

This assay concerns the target Casein kinase II subunit alpha (Homo sapiens, UniProt P68400). The assay can be described thus: Radiometric Kinase Assay.

SMILES strings stand for the structures.

Casein kinase II subunit alpha, sequence (P68400 whole entry): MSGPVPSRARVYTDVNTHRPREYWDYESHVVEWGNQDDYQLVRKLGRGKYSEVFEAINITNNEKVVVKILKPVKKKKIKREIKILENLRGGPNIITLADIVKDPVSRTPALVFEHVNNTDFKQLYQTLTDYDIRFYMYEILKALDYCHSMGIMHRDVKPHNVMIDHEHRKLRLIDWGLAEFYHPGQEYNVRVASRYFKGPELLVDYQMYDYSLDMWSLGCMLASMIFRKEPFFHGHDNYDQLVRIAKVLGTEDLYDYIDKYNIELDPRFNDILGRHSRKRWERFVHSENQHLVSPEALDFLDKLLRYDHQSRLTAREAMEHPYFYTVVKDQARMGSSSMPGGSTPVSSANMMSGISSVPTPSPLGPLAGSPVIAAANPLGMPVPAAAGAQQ

Molecule `CC(C)COC(=O)c1[nH]c2ccc(F)cc2c1-c1cn(CC2CCN(CCNS(=O)(=O)c3ccc(-c4ccccc4C#N)cc3)CC2)nn1` [US20230278983, Code AB1076] displayed an IC50 of 0.046 µM.

One may read the IC50 as the concentration that gives 50% inhibition. A high value points to weaker potency in that assay.
